Measurements: patent US20030232013A1, “Therapeutic and diagnostic targeting of cancers cells with tumor homing peptides” (priority 2002, published 2003)
Structures can show the parent of a compound that is named as a salt. Where two headings read alike, the source gives them in different places. Numbered stars: 1 amine (or outer) side, 2 acyl side, 3 side chain; on linkers, the order of the positions; unused ones are H or OH. Bridge positions count the residues as written; N and C are the ends. Square brackets hold non-standard residues; d marks the D form. Peptide text beside a SMILES is read from it. I, II: the chains in the order shown. * marks the point of attachment. Actinocin(9to1) = Cc1c2oc3c(C)ccc(C(=O)[*:1])c3nc-2c(C(=O)[*:2])c(N)c1=O; DOTA = O=C(O)CN1CCN(CC(=O)O)CCN(CC(=O)*)CCN(CC(=O)O)CC1; NMeV = CN[C@H](C(=O)O)C(C)C; Ahx = NCCCCCC(=O)O; Sar = CNCC(=O)O

Key:
[1] = in vivo; cited from earlier work
[2] = system: chronic myelogenous leukemia; details: previously untreated chronic myelogenous leukemia; cited from earlier work
[3] = cited from earlier work
[4] = cited from earlier work; remark: listed apart in the source
[5] = in vivo; cited from earlier work; remark: listed apart in the source
[6] = system: MCF-7 (Human) breast cancer cells; test: In vitro competitive cell binding assay, MCF-7; details: competitive binding vs. ^125I-Tyr^5-6-Ahx-Phe^19-STh or ^125I-Tyr^5-Phe^19-STh
Experimental: (§1) In Vitro Competitive Cell Binding Assay. The IC50 values of both metallated and non-metallated STh conjugates were determined in human cancer cells by a competitive displacement cell binding assay using ^125I-STh (^125I-Tyr^5-Phe^19-STh or ^125I-Tyr^5-6-Ahx-Phe^19-STh). […] After the incubation, the reaction medium was aspirated and cells were washed three times with media. The radioactivity bound to the cells was counted in a Packard Riastar gamma counting system. The ^125I-STh bound to cells was plotted vs. increasing concentrations of STh conjugate to determine the respective IC50 values (Table 3). For statistical considerations, three separate in vitro cell binding experiments with each conjugate were performed in duplicate.

[7] = system: A375 (Human) melanoma cells; test: In vitro competitive cell binding assay, A375; details: competitive binding vs. ^125I-Tyr^5-6-Ahx-Phe^19-STh or ^125I-Tyr^5-Phe^19-STh
Experimental: as §1

[8] = system: MB-231 (Human) breast cancer cells; test: In vitro competitive cell binding assay, MB-231; details: competitive binding vs. ^125I-Tyr^5-6-Ahx-Phe^19-STh or ^125I-Tyr^5-Phe^19-STh; read-out: In vitro IC50, Breast MB-231 (Human)
Experimental: as §1

[9] = system: T47D (Human) breast cancer cells; test: In vitro competitive cell binding assay, T47D; details: competitive binding vs. ^125I-Tyr^5-6-Ahx-Phe^19-STh or ^125I-Tyr^5-Phe^19-STh; read-out: In vitro IC50, Breast T47D (Human)
Experimental: as §1

[10] = system: PC-3 (Human) prostate cancer cells; test: In vitro competitive cell binding assay, PC-3; details: competitive binding vs. ^125I-Tyr^5-6-Ahx-Phe^19-STh or ^125I-Tyr^5-Phe^19-STh
Experimental: as §1

[11] = system: CFPAC-1 (Human) pancreatic cancer cells; test: In vitro competitive cell binding assay, CFPAC-1; details: competitive binding vs. ^125I-Tyr^5-6-Ahx-Phe^19-STh or ^125I-Tyr^5-Phe^19-STh
Experimental: as §1

[12] = in vivo, cited from earlier work
[13] = in vivo; cited from earlier work; remark: listed apart in the source
[14] = oral radioactive lomustine, cited from earlier work
multiple myeloma = details: oral administration; cited from earlier work
[15] = humans, cited from earlier work
Hodgkin's disease = details: cited from earlier work
[16] = cited from earlier work; remark: listed apart in the source
MB-231 cells = test: Scatchard analysis, MB-231; type: binding, human
Experimental: (§2) Scatchard Analysis. Scatchard analysis was performed in human cancer cells by a receptor-binding assay using ^125I-STh and 6-Ahx-Phe^19-STh or Phe^19-STh. […] After the incubation, the reaction medium was aspirated and cells were washed three times with media. The radioactivity bound to the cells was counted in a Packard Riastar gamma counting system. The experiment was performed in duplicate and average values were used for the calculations. The total bound peptide (B, both radioactive and non-radioactive), was obtained by multiplying the fraction of bound labeled peptide with the total concentration of peptide (both radioactive and non-radioactive). The total free peptide (F, both radioactive and non-radioactive) was obtained by substracting the total bound peptide from the total concentration of peptide. The non-specific binding was neglected in the calculations as it was <3%. The ratio of concentration of total bound and total free peptide (B/F) was plotted vs. total bound peptide (B) to determine the Kd (−1/slope) and Bmax (X-intercept) values. The number of receptors per cell was calculated from the Bmax (Table 4).

T-47D cells = test: Scatchard analysis, T-47D; type: binding, human
Experimental: as §2

[17] = single oral doses of about 0.6 mg/kg to about […]
[18] = at equilibrium, calculated using Bmax value

Cc1c2oc3c(C)ccc(C(=O)N[C@@H]4C(=O)N[C@H](C(C)C)C(=O)N5CCC[C@H]5C(=O)N(C)CC(=O)N(C)[C@@H](C(C)C)C(=O)O[C@@H]4C)c3nc-2c(C(=O)N[C@@H]2C(=O)N[C@H](C(C)C)C(=O)N3CCC[C@H]3C(=O)N(C)CC(=O)N(C)[C@@H](C(C)C)C(=O)O[C@@H]2C)c(N)c1=O [Actinomycin D] (I: T[dV]P[Sar][NMeV] / II: T[dV]P[Sar][NMeV]; ester I:1-I:C, II:1-II:C; linker I:N-II:N via Actinocin(9to1))
dose excreted intact into the bile [1]: Half of the dose
dose excreted intact into the urine [1]: 10%
half-life [1]: about 36 hours
passage of the blood-brain barrier [1]: does not pass the blood-brain barrier

CS(=O)(=O)OCCCCOS(C)(=O)=O [Busulfan, 1,4-butanediol dimethanesulfonate]
adults obtaining hematologic remission with regression or stabilization of organomegaly [2]: Approximately 90%

O=NN(CCCl)C(=O)NCCCl [Carmustine, 1,3 bis(2-chloroethyl)-1-nitrosourea]
solubility in alcohol and lipids ([3]; alcohol and lipids): highly soluble
solubility in water [3]: poorly soluble in water

O=C(O)CCCc1ccc(N(CCCl)CCCl)cc1 [Chlorambucil, 4-[bis(2-chlorethyl)amino] benzenebutanoic acid]
absorption from the gastrointestinal tract ([4]; oral, tablet): rapidly and completely absorbed
terminal half-life of the parent drug [4, 17]: about 1.5 hours
time to peak plasma chlorambucil levels [4, 17]: within one hour

N.N.[Cl][Pt][Cl] [Cisplatin]
oral absorption [5]: not absorbed orally

CC(C)C[C@@H]1NC(=O)[C@H](CCC(=O)O)NC(=O)[C@@H]2CSSC[C@@H]3NC(=O)[C@H](C)NC(=O)[C@@H]4CCCN4C(=O)[C@H](CC(N)=O)NC(=O)[C@H](CSSC[C@H](NC(=O)[C@H](Cc4ccc(O)cc4)NC(=O)[C@H](CC(N)=O)NC(=O)[C@H](CO)NC(=O)[C@H](CO)NC(=O)[C@H](CC(N)=O)NC(=O)CCCCCNC(=O)CN4CCN(CC(=O)O)CCN(CC(=O)O)CCN(CC(=O)O)CC4)C(=O)N2)NC(=O)[C@H](CSSC[C@@H](C(=O)N[C@@H](Cc2ccccc2)C(=O)O)NC(=O)CNC(=O)[C@H]([C@@H](C)O)NC3=O)NC1=O [DOTA-6-Ahx-Phe^19-STh] ({DOTA-Ahx}-NSSNYCCELCCNPACTGCF-OH; disulfide 6-11, 7-15, 10-18)
IC50 [6]: 14.1 nM
IC50 [7]: 1.5 nM
IC50 [8]: 3.9 nM
IC50 [9]: 0.5 nM
IC50 [10]: 7 nM
IC50 [11]: 2.8 nM

COc1cccc2c1C(=O)c1c(O)c3c(c(O)c1C2=O)C[C@@](O)(C(C)=O)C[C@@H]3O[C@H]1C[C@H](N)[C@H](O)[C@H](C)O1 [Daunorubicin, 5,12-Naphthacenedione, (8S-cis)-8-acetyl-10-[(3-amino-2,3,6-trideoxy-a-L-lyxo-hexanopyranosyl)oxy]-7,8,9,10-tetrahydro-6,8,11-trihydroxy-10-methoxy-, hydrochloride]
oral absorption ([12]; po): poor
half-life of elimination [12]: about 19 hours

COc1cccc2c1C(=O)c1c(O)c3c(c(O)c1C2=O)C[C@@](O)(C(=O)CO)C[C@@H]3O[C@H]1C[C@H](N)[C@H](O)[C@H](C)O1 [Doxorubicin, 5,12-Naphthacenedione, (8s-cis)-10-[(3-amino-2,3,6-trideoxy-a-L-lyxo-hexopyranosyl)oxy]-7,8,9,10-tetrahydro-6,8, 11-trihydroxy-8-(hydroxyacetyl)-1-methoxy-hydrochloride]
absorption [13]: absorbed poorly
elimination half-life [13]: about 30 hours

CC(C)C[C@@H]1NC(=O)[C@H](CCC(=O)O)NC(=O)[C@@H]2CSSC[C@@H]3NC(=O)[C@H](C)NC(=O)[C@@H]4CCCN4C(=O)[C@H](CC(N)=O)NC(=O)[C@H](CSSC[C@H](NC(=O)[C@H](Cc4ccc(O)cc4)NC(=O)[C@H](CC(N)=O)NC(=O)[C@H](CO)NC(=O)[C@H](CO)NC(=O)[C@H](CC(N)=O)NC(=O)CN4CCN(CC(=O)O)CCN(CC(=O)O)CCN(CC(=O)O)CC4)C(=O)N2)NC(=O)[C@H](CSSC[C@@H](C(=O)N[C@@H](Cc2ccccc2)C(=O)O)NC(=O)CNC(=O)[C@H]([C@@H](C)O)NC3=O)NC1=O [In-DOTA-Phe^19-STh] ({DOTA}-NSSNYCCELCCNPACTGCF-OH; disulfide 6-11, 7-15, 10-18)
IC50 [9]: 8.9 ± 2.2 nM

O=NN(CCCl)C(=O)NC1CCCCC1 [Lomustine, 1-(2-chloro-ethyl)-3-cyclohexyl-1 nitrosourea]
solubility in 10% ethanol ([3]; 10% ethanol): about 0.05 mg/mL
solubility in absolute alcohol ([3]; absolute alcohol): about 70 mg/mL
ionization at physiological pH ([3]; physiological pH): relatively unionized
solubility in water [3]: less than 0.05 mg/mL
radioactivity excreted in the form of degradation products within 24 hours ([14]; about 30 mg/m^2 to 100 mg/m^2): about half
serum half-life of the metabolites [14]: about 16 hours to about 2 days

N[C@@H](Cc1ccc(N(CCCl)CCCl)cc1)C(=O)O [Melphalan, 4-[bis(2-chloroethyl)amino]-L-phenylalanine]
solubility in water [3]: insoluble in water
patients with multiple myeloma showing a favorable response (multiple myeloma): about one third to one half

CO[C@@]12[C@H](COC(N)=O)C3=C(C(=O)C(C)=C(N)C3=O)N1C[C@@H]1N[C@@H]12 [Mitomycin]
time required to reduce the serum concentration by about 50% ([15]; 30 mg bolus injection): 17 min
dose excreted unchanged in the urine [15]: Approximately 10%

COc1cccc2c1C(=O)c1c(O)c3c(c(O)c1C2=O)C[C@@](O)([C@H](C)O)C[C@@H]3O[C@H]1C[C@H](N)[C@H](O)[C@H](C)O1 [daunorubicinol]
half-life of active metabolite [12]: about 27 hours

CC[C@]1(O)C[C@@H]2CN(CCc3c([nH]c4ccccc34)[C@@](C(=O)OC)(c3cc4c(cc3OC)N(C)[C@H]3[C@@](O)(C(=O)OC)[C@H](OC(C)=O)[C@]5(CC)C=CCN6CC[C@]43[C@@H]65)C2)C1 [vinblastine]
cases with significant improvement (Hodgkin's disease): 50 to 90%
half-life of disappearance from plasma after distribution ([16]; intravenous injection): ~20 h
half-life of disappearance from plasma after distribution (first given) ([16]; intravenous injection): approximately 1 hours

CC[C@]1(O)C[C@H]2CN(CCc3c([nH]c4ccccc34)[C@@](C(=O)OC)(c3cc4c(cc3OC)N(C=O)[C@H]3[C@@](O)(C(=O)OC)[C@H](OC(C)=O)[C@]5(CC)C=CCN6CC[C@]43[C@@H]65)C2)C1 [vincristine]
terminal half-life (plasma) ([16]; in vivo): about 24 hours

^125I-Tyr^5-6-Ahx-Phe^19-STh
Kd (MB-231 cells; Scatchard plot): 4 nM
No. of receptors per cell (MB-231 cells; [18]): 112,786
Kd (T-47D cells; Scatchard plot): 4.4 nM
No. of receptors per cell (T-47D cells; [18]): 41,758
